From ChEMBL document CHEMBL4219155, “Structure-based drug design of 1,3,6-trisubstituted 1,4-diazepan-7-ones as selective human kallikrein 7 inhibitors” (Bioorg Med Chem Lett, 2018)

Tests used:
[1] = biological target: Kallikrein-7 (Homo sapiens, UniProt P49862); test: Inhibition of recombinant human KLK7 using MOCAc-Arg-Pro-Lys-Pro-Val-Glu-Nva-Trp-Arg-Lys(Dnp)-NH2 as substrate preincubated for 10 mins followed by substrate addition measured after 30 mins by fluorescence assay
[2] = biological target: T1, Kallikrein-5 (Homo sapiens, UniProt Q9Y337); test: Inhibition of recombinant human KLK5 using Boc-Val-Pro-Arg-MCA as substrate preincubated for 10 mins followed by substrate addition measured after 30 mins by fluorescence assay
T1 sequence (Q9Y337 whole entry): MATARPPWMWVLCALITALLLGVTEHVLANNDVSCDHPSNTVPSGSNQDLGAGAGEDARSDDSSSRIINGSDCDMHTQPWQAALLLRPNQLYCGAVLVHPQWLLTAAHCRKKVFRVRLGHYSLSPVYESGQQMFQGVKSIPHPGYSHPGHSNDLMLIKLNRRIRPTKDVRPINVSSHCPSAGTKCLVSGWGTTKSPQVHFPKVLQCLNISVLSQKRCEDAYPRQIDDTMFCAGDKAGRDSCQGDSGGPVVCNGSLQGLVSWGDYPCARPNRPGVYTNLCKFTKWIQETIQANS

[3] = biological target: Trypsin (Homo sapiens, UniProt P07477+P07478+P35030); test: Inhibition of human trypsin using Boc-Gln-Ala-Arg-MCA as substrate preincubated for 10 mins followed by substrate addition measured after 30 mins by fluorescence assay; assay type: protein assay
[4] = Inhibition of human chymotrypsin using Suc-Ala-Ala-Pro-Phe-MCA as substrate preincubated for 10 mins followed by substrate addition measured after 30 mins by fluorescence assay

Sequence of Kallikrein-7 (P49862 whole entry): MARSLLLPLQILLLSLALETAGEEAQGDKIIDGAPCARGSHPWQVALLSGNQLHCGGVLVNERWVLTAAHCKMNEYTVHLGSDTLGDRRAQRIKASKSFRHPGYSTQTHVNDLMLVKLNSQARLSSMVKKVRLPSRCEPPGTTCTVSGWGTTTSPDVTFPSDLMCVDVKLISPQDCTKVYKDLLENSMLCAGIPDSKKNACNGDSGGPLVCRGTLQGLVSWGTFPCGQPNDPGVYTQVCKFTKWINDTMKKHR

IC50 [1]	IC50 [2]	IC50 [3]	IC50 [4]	SMILES
0.058 µM	> 30 µM	> 30 µM	3.1 µM	COc1ccc(Cl)cc1C[C@@H]1CN/C(=N\N(C)C)CN([C@@H](C)C(=O)Nc2cccc(-c3cnn(C)c3)c2)C1=O
2.5 µM	–	–	–	COc1ccc(Cl)cc1C[C@@H]1CN/C(=N\N(C)C)CN(CC(=O)Nc2cccc(C(=O)N(C)C)c2)C1=O
4.1 µM	–	–	–	CCCC[C@H](C(=O)Nc1cccc(-c2cnn(C)c2)c1)N1C/C(=N/N(C)C)NC[C@@H](Cc2cc(Cl)ccc2OC)C1=O
0.45 µM	–	–	–	CC[C@@H](C(=O)Nc1cccc(-c2cnn(C)c2)c1)N1C/C(=N/N(C)C)NC[C@@H](Cc2cc(Cl)ccc2OC)C1=O
0.99 µM	–	–	–	COc1ccc(Cl)cc1C[C@@H]1CN/C(=N\N(C)C)CN(CC(=O)Nc2cccc(S(=O)(=O)N(C)C)c2)C1=O
0.67 µM	–	–	–	COc1ccc(Cl)cc1C[C@@H]1CN/C(=N\N(C)C)CN(CC(=O)Nc2cccc(-c3ccoc3)c2)C1=O
7 µM	–	–	–	CCC[C@H](C(=O)Nc1cccc(-c2cnn(C)c2)c1)N1C/C(=N/N(C)C)NC[C@@H](Cc2cc(Cl)ccc2OC)C1=O
3.9 µM	–	–	–	COc1ccc(Cl)cc1C[C@@H]1CN/C(=N\N(C)C)CN(CC(=O)Nc2cccc(S(=O)(=O)C(F)(F)F)c2)C1=O
0.11 µM	–	–	–	CCCC[C@@H](C(=O)Nc1cccc(-c2cnn(C)c2)c1)N1C/C(=N/N(C)C)NC[C@@H](Cc2cc(Cl)ccc2OC)C1=O
0.94 µM	–	–	–	CNC(=O)c1cccc(NC(=O)CN2C/C(=N/N(C)C)NC[C@@H](Cc3cc(Cl)ccc3OC)C2=O)c1
2.8 µM	–	–	–	CC[C@H](C(=O)Nc1cccc(-c2cnn(C)c2)c1)N1C/C(=N/N(C)C)NC[C@@H](Cc2cc(Cl)ccc2OC)C1=O
0.87 µM	–	–	–	COc1ccc(Cl)cc1C[C@@H]1CN/C(=N\N(C)C)CN(CC(=O)Nc2cccc(-c3cccs3)c2)C1=O
0.048 µM	> 30 µM	> 30 µM	1.3 µM	CCC[C@@H](C(=O)Nc1cccc(-c2cnn(C)c2)c1)N1C/C(=N/N(C)C)NC[C@@H](Cc2cc(Cl)ccc2OC)C1=O
0.52 µM	> 30 µM	> 30 µM	> 30 µM	COc1ccc(Cl)cc1C[C@@H]1CN/C(=N\N(C)C)CN(CC(=O)Nc2cccc(-c3cnn(C)c3)c2)C1=O
0.92 µM	–	–	–	COc1ccc(Cl)cc1C[C@@H]1CN/C(=N\N(C)C)CN([C@H](C)C(=O)Nc2cccc(-c3cnn(C)c3)c2)C1=O
5.3 µM	–	–	–	COc1ccc(Cl)cc1C[C@@H]1CN/C(=N\N(C)C)CN(CC(=O)Nc2cccc(C#N)c2)C1=O
1.5 µM	–	–	–	COc1ccc(Cl)cc1C[C@@H]1CN/C(=N\N(C)C)CN(CC(=O)Nc2cccc(-c3ccsc3)c2)C1=O
0.59 µM	–	–	–	COc1ccc(Cl)cc1C[C@@H]1CN/C(=N\N(C)C)CN(CC(=O)Nc2cccc(-c3ccco3)c2)C1=O
4.3 µM	–	–	–	COc1ccc(Cl)cc1C[C@@H]1CN/C(=N\N(C)C)CN(CC(=O)Nc2cccc(C(F)(F)F)c2)C1=O
2.7 µM	–	–	–	COc1cccc(NC(=O)CN2C/C(=N/N(C)C)NC[C@@H](Cc3cc(Cl)ccc3OC)C2=O)c1
